Target: human MRGPRD (Homo sapiens, UniProt Q8TDS7)
Experiment: MRGPRD antagonist activity, IP-One HTRF assay in CHO cells stably expressing human MRGPRD (versus 100 μM β-Alanine agonist)
Assay type: cell-based
Method: Chinese Hamster Ovary (CHO) cells stably expressing human MRGPRD (Eurofins, San Diego CA) were plated in a 384-well plate at 20,000 cells per well in 12 μL of Optimem (Fisher Scientific 11-058-021). Plates were kept in the incubator at 37° C. overnight. Antagonists were solubilized at a concentration of 10 mM in DMSO, and the agonists were solubilized to stock concentrations of either 50 mM in H2O (β-Alanine) or 10 mM in DMSO (all others) and then diluted in assay buffer (final concentrations of 5.7 mM Tris-HCl, 43 mM NaCl, 50 mM LiCl, pH=8). The concentration of DMSO was normalized across the plate. Antagonists were added to the plate using a Tecan D300 Digital Dispenser at nanoliter/picoliter volumes and 2 μL of agonists in assay buffer were added to each well for a final assay volume of 14 μL. Plates were covered and incubated for 1 h at 37° C. and then for 1 h at room temperature. IP-1 standards and HTRF detection reagents were added according to an IP-One-Gq Kit purchased from Cisbio (part number 62IPAPEJ) and incubated in the dark for 1 h at room temperature. Assay plates were read on either a Molecular Devices SpectraMax iD5 plate reader or a BMG ClarioStar plate reader. The HTRF ratio was calculated form the raw data and graphed using GraphPad Prism to calculate IC50 values. Data are expressed as average IC50 values and average percent antagonism calculated as a percent of the maximum efficacy response. For these studies, the variability of the data was assessed by determining the standard error of mean (SEM).
The activity ranges are denoted as follows: “+++++” denotes antagonist activity <100 nM; “++++” denotes antagonist activity between 100 and 500 nM; “+++” denotes activity between 500 and 1000 nM; “++” denotes activity between 1000 and 3000 nM; and “+” denotes activity >3000 nM.

Chain of human MRGPRD (Q8TDS7 whole entry): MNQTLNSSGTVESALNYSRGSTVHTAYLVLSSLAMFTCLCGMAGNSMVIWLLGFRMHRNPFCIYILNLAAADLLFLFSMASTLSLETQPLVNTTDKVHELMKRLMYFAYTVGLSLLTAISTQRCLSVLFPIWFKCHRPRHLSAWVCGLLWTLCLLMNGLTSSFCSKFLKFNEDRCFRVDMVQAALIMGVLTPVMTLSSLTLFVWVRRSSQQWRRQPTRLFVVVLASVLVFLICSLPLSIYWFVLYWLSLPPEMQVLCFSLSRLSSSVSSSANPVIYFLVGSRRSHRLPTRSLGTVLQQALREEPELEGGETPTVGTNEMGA

Row | IC50 [nM] | Structure (SMILES)
1 | 500 to 1000 | COc1cccc(-c2nc([C@@H]3CCCN(C(=O)Nc4ccc(OC(F)(F)F)cc4)C3)n3ccccc23)c1 [Compound 5-21]
2 | 1000 to 3000 | COc1cccc(-c2nc([C@@H]3CCCN(C(=O)Nc4ccc(-c5ccccc5)cc4)C3)n3ccccc23)c1 [Compound 5-22]
3 | 500 to 1000 | COc1cccc(-c2nc([C@@H]3CCCN(C(=O)Nc4ccc(C(F)(F)F)cc4)C3)n3ccccc23)c1 [Compound 5-23]
4 | < 100 | COc1cccc(-c2nc([C@@H]3CCCN(C(=O)Nc4ccc(C(C)=O)cc4)C3)n3ccccc23)c1 [Compound 5-24]
5 | < 100 | COc1cccc(-c2nc([C@@H]3CCCN(C(=O)Nc4ccc(C)cc4C)C3)n3ccccc23)c1 [Compound 5-25]
6 | 100 to 500 | COc1cccc(-c2nc([C@@H]3CCCN(C(=O)Nc4cccc5c4CCC5)C3)n3ccccc23)c1 [Compound 5-26]
7 | < 100 | COc1cccc(-c2nc([C@@H]3CCCN(C(=O)Nc4ccc5c(c4)OCO5)C3)n3ccccc23)c1 [Compound 5-27]
8 | < 100 | COc1cccc(-c2nc([C@@H]3CCCN(C(=O)Nc4ccccc4CO)C3)n3ccccc23)c1 [Compound 5-28]
9 | 100 to 500 | COc1cccc(-c2nc([C@@H]3CCCN(C(=O)NCCc4nc(C)cs4)C3)n3ccccc23)c1 [Compound 5-30]
10 | 100 to 500 | COc1cccc(-c2nc([C@@H]3CCCN(C(=O)Nc4cccc(CN(C)C)c4)C3)n3ccccc23)c1 [Compound 5-31]
11 | 100 to 500 | COc1cccc(-c2nc([C@@H]3CCCN(C(=O)Nc4ccc5c(c4)CCC5)C3)n3ccccc23)c1 [Compound 5-32]
12 | 1000 to 3000 | COc1cccc(-c2nc([C@@H]3CCCN(C(=O)Nc4ccccc4C(=O)N(C)C)C3)n3ccccc23)c1 [Compound 5-33]
13 | 1000 to 3000 | COc1cccc(-c2nc([C@@H]3CCCN(C(=O)Nc4ccccc4C(C)=O)C3)n3ccccc23)c1 [Compound 5-34]
14 | < 100 | COc1cccc(-c2nc([C@@H]3CCCN(C(=O)Nc4cccc5c4OCO5)C3)n3ccccc23)c1 [Compound 5-35]
15 | 100 to 500 | COc1cccc(-c2nc([C@@H]3CCCN(C(=O)Nc4cccc(N(C)C)c4)C3)n3ccccc23)c1 [Compound 5-36]
16 | 100 to 500 | COc1cccc(-c2nc([C@@H]3CCCN(C(=O)Nc4ccccc4N(C)C)C3)n3ccccc23)c1 [Compound 5-37]
17 | 100 to 500 | COc1cccc(-c2nc([C@@H]3CCCN(C(=O)NC4CCc5ccccc5C4)C3)n3ccccc23)c1 (stereo partly drawn) [Compound 5-38]
18 | 100 to 500 | COc1cccc(-c2nc([C@@H]3CCCN(C(=O)Nc4cccc5ccccc45)C3)n3ccccc23)c1 [Compound 5-39]
19 | < 100 | COc1cccc(-c2nc([C@@H]3CCCN(C(=O)Nc4ccc5cccnc5c4)C3)n3ccccc23)c1 [Compound 5-40]
20 | 100 to 500 | COCCNC(=O)N1CCC[C@@H](c2nc(-c3cccc(OC)c3)c3ccccn23)C1 [Compound 5-41]
21 | < 100 | COc1cccc(-c2nc([C@@H]3CCCN(C(=O)Nc4ccc5nc(C(C)(C)C)[nH]c5c4)C3)n3ccccc23)c1 [Compound 5-42]
22 | 100 to 500 | COc1cccc(-c2nc([C@@H]3CCCN(C(=O)NC4CCCCC4)C3)n3ccccc23)c1 [Compound 5-43]
23 | < 100 | COc1cccc(-c2nc([C@@H]3CCCN(C(=O)Nc4ccn(C)n4)C3)n3ccccc23)c1 [Compound 5-44]
24 | < 100 | COc1cccc(-c2nc([C@@H]3CCCN(C(=O)NCc4nccs4)C3)n3ccccc23)c1 [Compound 5-45]
25 | 500 to 1000 | COc1cccc(-c2nc([C@@H]3CCCN(C(=O)NCCN4CCCCC4)C3)n3ccccc23)c1 [Compound 5-46]
26 | < 100 | COc1cccc(-c2nc([C@@H]3CCCN(C(=O)Nc4ccc5c(c4)CCC(C)(C)O5)C3)n3ccccc23)c1 [Compound 5-47]

Row | IC50 [nM] | Structure (SMILES)
27 | 100 to 500 | COc1cccc(-c2nc([C@@H]3CCCN(C(=O)NC4CCS(=O)(=O)CC4)C3)n3ccccc23)c1 [Compound 5-48]
28 | < 100 | CCOCn1cc(NC(=O)N2CCC[C@@H](c3nc(-c4cccc(OC)c4)c4ccccn34)C2)cn1 [Compound 5-49]
29 | < 100 | COc1cccc(-c2nc([C@@H]3CCCN(C(=O)Nc4onc(C)c4C)C3)n3ccccc23)c1 [Compound 5-50]
30 | < 100 | COc1cccc(-c2nc([C@@H]3CCCN(C(=O)Nc4ccc5c(c4)ncn5C)C3)n3ccccc23)c1 [Compound 5-51]
31 | 100 to 500 | COc1cccc(-c2nc([C@@H]3CCCN(C(=O)NCCS(C)(=O)=O)C3)n3ccccc23)c1 [Compound 5-52]
32 | < 100 | COc1cccc(-c2nc([C@@H]3CCCN(C(=O)Nc4ccc5c(c4)CN(C)C5)C3)n3ccccc23)c1 [Compound 5-53]
33 | 500 to 1000 | CCc1csc(NC(=O)N2CCC[C@@H](c3nc(-c4cccc(OC)c4)c4ccccn34)C2)n1 [Compound 5-54]
34 | < 100 | COc1cccc(-c2nc([C@@H]3CCCN(C(=O)NC4(c5ccccc5)CC4)C3)n3ccccc23)c1 [Compound 5-55]
35 | 100 to 500 | COc1cccc(-c2nc([C@@H]3CCCN(C(=O)N[C@H]4CC[C@@H](O)CC4)C3)n3ccccc23)c1 [Compound 5-56]
36 | < 100 | COc1cccc(-c2nc([C@@H]3CCCN(C(=O)Nc4ccc5c(c4)COCO5)C3)n3ccccc23)c1 [Compound 5-57]
37 | < 100 | COc1ccc(CNC(=O)N2CCC[C@@H](c3nc(-c4cccc(OC)c4)c4ccccn34)C2)cc1 [Compound 5-58]
38 | < 100 | COc1cccc(-c2nc([C@@H]3CCCN(C(=O)Nc4cc(C)nn4C)C3)n3ccccc23)c1 [Compound 5-59]
39 | < 100 | COc1cccc(-c2nc([C@@H]3CCCN(C(=O)NCc4ccccc4)C3)n3ccccc23)c1 [Compound 5-60]
40 | < 100 | COc1cccc(-c2nc([C@@H]3CCCN(C(=O)Nc4cccc(-c5csc(C)n5)c4)C3)n3ccccc23)c1 [Compound 5-61]
41 | < 100 | COc1cccc(-c2nc([C@@H]3CCCN(C(=O)Nc4cnc5ccccn45)C3)n3ccccc23)c1 [Compound 5-62]
42 | < 100 | COc1cccc(-c2nc([C@@H]3CCCN(C(=O)Nc4ccc(CC#N)cc4)C3)n3ccccc23)c1 [Compound 5-63]
43 | 500 to 1000 | COc1cccc(-c2nc([C@@H]3CCCN(C(=O)NC4CCN(C)CC4)C3)n3ccccc23)c1 [Compound 5-64]
44 | < 100 | COc1cccc(-c2nc([C@@H]3CCCN(C(=O)Nc4ccc5ncsc5c4)C3)n3ccccc23)c1 [Compound 5-65]
45 | < 100 | COc1cccc(-c2nc([C@@H]3CCCN(C(=O)Nc4nocc4C)C3)n3ccccc23)c1 [Compound 5-66]
46 | < 100 | COc1cccc(-c2nc([C@@H]3CCCN(C(=O)Nc4nccs4)C3)n3ccccc23)c1 [Compound 5-67]
47 | < 100 | CCn1cc(CNC(=O)N2CCC[C@@H](c3nc(-c4cccc(OC)c4)c4ccccn34)C2)cn1 [Compound 5-68]
48 | < 100 | COc1cccc(-c2nc([C@@H]3CCCN(C(=O)Nc4cc(C#N)on4)C3)n3ccccc23)c1 [Compound 5-69]
49 | < 100 | COc1cccc(-c2nc([C@@H]3CCCN(C(=O)N[C@H]4CC[C@H](O)CC4)C3)n3ccccc23)c1 [Compound 5-70]
50 | < 100 | COc1cccc(-c2nc([C@@H]3CCCN(C(=O)NC4CC(C)C4)C3)n3ccccc23)c1 (stereo partly drawn) [Compound 5-71]
51 | < 100 | COc1cccc(-c2nc([C@@H]3CCCN(C(=O)Nc4cnc(N(C)C)nc4)C3)n3ccccc23)c1 [Compound 5-72]

— patent US20240246980A1, “MODULATORS OF MAS-RELATED G-PROTEIN RECEPTOR D AND RELATED PRODUCTS AND METHODS” (Escient Pharmaceuticals, Inc., priority 2022, published 2024)
